In patent US7074807B2, “Compositions and methods for inducing cell death” (Georgetown University, priority 1998, dated 2006):

What was measured:
MDA-MB 231 cells = assay: Protein tyrosine phosphorylation (anti-PY immunoprecipitation/immunoblot); format: cell-based, human; details: 10 mM, 15 min to 2 h
Method: FIG. 2. Effects of tempol and tempo on protein tyrosine phosphorylation. Subconfluent cultures were grown in serum-free medium overnight, followed by treatment with tempol (10 mM) or tempo (10 mM) for indicated times and lysis. Normalized protein contents (1 mg) were immunoprecipitated with agarose-conjugated anti-PY MAb, and then immunoblotted with anti-PY MAb. Data shown is representative of two independent experiments. UT, untreated cells grown overnight in serum-free medium.
Cell Culture, Treatments with Tempol and Tempo, and Preparation of Cell Lysates—MDA-MB 231 human breast cancer cells were grown to near confluence in 75 cm^2 tissue culture flasks in Improved Minimum Essential Medium (IMEM) (Cellgro) containing 10% fetal bovine serum (FBS) and 2 mM L-glutamine in a humidified atmosphere of 5% CO2: 95% air at 37° C. Cells were trypsinized and plated into a 150 mm tissue culture dish (two dishes per flask) overnight in medium containing 10% FBS followed by two washes with phosphate buffer saline (PBS). […]
Immunoprecipitation and Immunoblotting—Whole cell lysate (1 mg) was immunoprecipitated with the appropriate agarose-conjugated antibody (1 ug/ml of lysis buffer) overnight at 4° C. with constant agitation. […] The bands of interest were quantified by ImageQuant software version 3.3 (Molecular Dynamics Personal Densitometer, Sunnyvale, Calif.). […]

ERK1 = ERK1 activity (MBP phosphorylation of ERK1 immunoprecipitates); format: cell-based, human; details: 10 mM, 2 h, MDA-MB 231 cells
Method: FIGS. 4A, 4B. Tempol stimulates ERK1 activity. […] WCL (1 mg) were immunoprecipitated with agarose-conjugated anti-ERK1 antibody, and in vitro MBP phosphorylation assay was performed as described in experimental procedures. The incorporation of γ^32P into MBP was determined in a filter binding assay 4A. In other independent experiments, the reaction products were electrophoresed on 15% SDS-PAGE and MBP (at ˜18 kDa) was visualized by autoradiography 4B. Cont/Control, cells grown overnight in serum-free medium, and treated with 1% ethanol for 2 h.
ERK and SAPK/JNK Activities—Whole cell lysates prepared as described above were immunoprecipitated (1 mg) with an agarose conjugated anti-ERK1 antibody or an agarose conjugated anti-JNK1 antibody for 2 h at 4° C. with constant agitation. The immune-complexes were washed 3 times in lysis buffer and once in KBB as mentioned earlier. ERK or JNK activity assay was carried out according to manufacturer's procedures (UBI). […] The radioactive filters were washed and counted as described above. […] The radiolabeled GST-cJun fusion protein was detected by autoradiography.

CC1(C)CC(O)CC(C)(C)N1[O] [tempol, 4-hydroxy-tempo, reference compound]
protein tyrosine phosphorylation (MDA-MB 231 cells): minimal protein tyrosine phosphorylation | increase in the enzymatic activity of ERK1 (ERK1): Approximately 3 fold

CC1(C)CCCC(C)(C)N1[O] [tempo, 2,2,6,6-tetramethylpiperidine-N-oxyl]
protein tyrosine phosphorylation (MDA-MB 231 cells): conspicuous increase | increase in the enzymatic activity of ERK1 (ERK1): no change in ERK1 activity
